From the supplement of paper PMC4862054 come the findings set out here.

For test [1], the system named is CAL-85-1. Briefly: normalised viability (% of control), CellTiter-Blue; higher = more viable cells (about 100 = DMSO control). Particulars: incubation time: 72 h. Here is the method: (§1)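 DSRT, CellTiter-Blue viability, 72 h incubation. Signal is normalised to DMSO and benzethonium chloride controls. Value is the normalised response at dose 7.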
(In general: Resazurin is reduced to fluorescent resorufin, in cell work by metabolically active cells.)

The subject of test [2] is CAL-148. Described as above. Particulars: incubation time: 72 h. Here is the method: as §1
In test [3] the test system is MDA-MB-453. Described as above. Particulars: incubation time: 72 h. The procedure:
as §1

The test system of test [4] is CAL-51. The description is as above. Particulars: incubation time: 72 h. Here is the method:
as §1

For test [5], the system named is DU-4475. The description is as above. As to conditions: incubation time: 72 h. Here is the method:
as §1

Test [6] deals with HDQ-P1. The description is as above. As to conditions: incubation time: 72 h. Here is the method: as §1
The next test relates to MDA-MB-231. Briefly: normalised response (% of control), CellTiter-Glo; higher = more viable cells (100 = DMSO, 0 = benzethonium chloride kill control). Particulars: incubation time: 72 h. In outline: (§2)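 After 72 h with compound in 384-well plates, breast cancer cell lines seeded as 20 µl suspension were read for CellTox Green fluorescence at 485/520 nm. CellTiter-Glo luminescence was then read after 10 min at room temperature. Compound was present at 5 concentrations in 10-fold steps over a 10,000-fold range set per compound, and plates were normalised to 0.1 % DMSO (100) and a positive kill control (0). Values are normalised signals, each at a single concentration.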
On the technique in general: ATP-based viability assays read luminescence as a measure of living cells.

Test [7] relates to CAL-85-1. The description is as above. Particulars: incubation time: 72 h. The essentials: as §2
The next test concerns HCC1143. The test is described as above. Particulars: incubation time: 72 h. In outline: as §2
The next test deals with MCF-10A. The test is described as above. As to conditions: incubation time: 72 h. In outline:
as §2

Test [8] has as its system CAL-148. The test is described as above. Particulars: incubation time: 72 h. In outline:
as §2

Another test concerns MFM-223. The description is as above. As to conditions: incubation time: 72 h. The essentials:
as §2

A further test concerns CAL-120. The test is described as above. Particulars: incubation time: 72 h. The essentials: as §2
Another test concerns BT-474. The test is described as above. As to conditions: incubation time: 72 h. In outline:
as §2

The test system of test [9] is HCC1599. The description is as above. Particulars: incubation time: 72 h. In outline:
as §2

The test system of a further test is Hs578T. The test is described as above. Particulars: incubation time: 72 h. In outline:
as §2

Test [10] has as its system DU-4475. The description is as above. As to conditions: incubation time: 72 h. In outline: as §2
For test [11], the system named is HDQ-P1. Described as above. Particulars: incubation time: 72 h. In outline:
as §2

Another test has as its system MDA-MB-468. Described as above. As to conditions: incubation time: 72 h. In outline:
as §2

A further test relates to HCC1937. Described as above. As to conditions: incubation time: 72 h. In outline:
as §2

A further test relates to BT-549. Described as above. Particulars: incubation time: 72 h. The essentials:
as §2

Test [12] concerns DU-4475. Particulars: 72 h. The essentials:
(§3)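 Plates of 384 wells holding compound in 5 µl medium received breast cancer cell lines in 20 µl suspension and were incubated 72 h. CellTiter-Blue (2.5 µl, 2 h, 37 °C) was used for viability, read at 560/590 nm, and every plate was normalised to vehicle and a positive kill control and assessed by Z'-factor. The EC50 derives from a percent-inhibition dose-response curve fit censored at the highest concentration, leaving out rows whose drug sensitivity score was zero.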

For test [13], the system named is CAL-85-1. Briefly: drug sensitivity score (DSS), CellTiter-Glo (DSS (AUC-based score)); higher = stronger drug effect (viability inhibition or cytotoxicity); extreme values may be limits of the assay. As to conditions: incubation time: 72 h. The essentials:
(§4)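 Plates with 384 wells held compound at 5 concentrations in 10-fold steps over a 10,000-fold range specific to each compound. Breast cancer cell lines were added in 20 µl suspension and incubated 72 h, then read for CellTox Green and CellTiter-Glo signals, with each plate normalised to 0.1 % DMSO and a positive kill control. The drug sensitivity score is based on the area under the fitted dose-response curve.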

The subject of test [14] is HCC1599. The test is described as above. As to conditions: incubation time: 72 h. In outline: as §4
Test [15] deals with CAL-85-1. Particulars: 72 h. The essentials:
as §3

The subject of test [16] is CAL-148. As to conditions: 72 h. The essentials:
as §3

The test system of test [17] is MDA-MB-453. As to conditions: 72 h. The essentials:
as §3

The test system of test [18] is CAL-51. As to conditions: 72 h. In outline:
as §3

Test [19] concerns HDQ-P1. Particulars: 72 h. In outline:
as §3

Turning to `CCS(=O)(=O)c1cccc(-c2cc(C(=O)NC3CCN(C)CC3)c(C)c3[nH]c4ncc(C)cc4c23)c1` [TAK-901] (100 nM), the normalised viability in the test with CAL-85-1 [1] stood at 70.4%; in the test on CAL-148 [2], 40.3%; in the test with MDA-MB-453 [3], 65%; in the test with CAL-51 [4], 56.5%; in the test with DU-4475 [5], 78.5%; with HDQ-P1 [6], 87.2%. Besides, the normalised response with MDA-MB-231 stood at 77.6%; in the test on CAL-85-1 [7], 103%; in the test on HCC1143, 77.2%; in the test with MCF-10A it was 80.2%; with CAL-148 [8] it was 45.6%; in the test on MFM-223, 79.5%. In addition, the normalised response in the test with CAL-120 is 81.5%; in the test on BT-474, 82%; with HCC1599 [9], 109%; in the test with Hs578T, 98.2%; in the test with DU-4475 [10], 98.5%; in the test with HDQ-P1 [11], 86.2%. Also, the normalised response turned out to be 38.5% in the test on MDA-MB-468, 102% in the test on HCC1937 and 82% with BT-549.
As to `COC1=CC(c2cc3ccccc3[nH]2)=N/C1=C\c1[nH]c(C)cc1C` [Obatoclax] (1000 nM), the normalised viability with CAL-85-1 [1] was determined as 57.5%; with CAL-148 [2] it was 78.3%; in the test with MDA-MB-453 [3], 34%; in the test with CAL-51 [4] it was 72.3%; in the test on DU-4475 [5], 78.4%; in the test with HDQ-P1 [6] it was 41.6%. The normalised response with MDA-MB-231 is 64%; with CAL-85-1 [7] it was 76.6%; in the test on HCC1143, 87.4%; in the test with MCF-10A, 92.8%; in the test with CAL-148 [8], 81.5%; with MFM-223, 93.7%. Besides, the normalised response in the test on CAL-120 is 94.2%; with BT-474, 65.4%; with HCC1599 [9], 97.1%; with Hs578T it was 91.7%; in the test on DU-4475 [10] it was 89.7%; in the test on HDQ-P1 [11], 97%. The values for the normalised response with MDA-MB-468, in the test with HCC1937 and with BT-549 were 83%, 63.4% and 77.3%, respectively.
Take `Cn1cnc2c(F)c(Nc3ccc(Br)cc3F)c(C(=O)NOCCO)cc21` [MEK-162]: the “EC50, CellTiter-Blue viability” value in the test on DU-4475 [12] was 0.0389 µM. The drug sensitivity score in the test with CAL-85-1 [13] and with HCC1599 [14] was 0 throughout.
For the compound `CC(C)(C)c1cc(NC(=O)Nc2ccc(-c3cn4c(n3)sc3cc(OCCN5CCOCC5)ccc34)cc2)no1` [Quizartinib] (100 nM), the normalised viability with CAL-85-1 [1] stood at 89.6%; in the test with CAL-148 [2], 98.8%; in the test on MDA-MB-453 [3], 96.6%; with CAL-51 [4] it was 114%; in the test with DU-4475 [5], 115%; with HDQ-P1 [6], 95%. In addition, the normalised response with MDA-MB-231 amounted to 108%; with CAL-85-1 [7], 102%; in the test with HCC1143, 105%; in the test on MCF-10A, 105%; in the test with CAL-148 [8], 100%; in the test with MFM-223, 109%. The normalised response in the test on CAL-120 amounted to 106%; in the test on BT-474, 108%; in the test on HCC1599 [9], 111%; with Hs578T, 98.5%; in the test on DU-4475 [10], 104%; in the test with HDQ-P1 [11] it was 100%. Besides, the normalised response in the test on MDA-MB-468 is 113%; with HCC1937 it was 102%; in the test with BT-549 it was 106%.
For `O=c1[nH]cc(F)c(=O)[nH]1` [Fluorouracil] (1000 nM), the normalised viability in the test with CAL-85-1 [1] was 74.2%; in the test with CAL-148 [2], 75.5%; in the test on MDA-MB-453 [3], 91.7%; with CAL-51 [4], 102%; with DU-4475 [5] it was 105%; with HDQ-P1 [6], 96.1%. Also, the normalised response with MDA-MB-231 turned out to be 97.7%; in the test on CAL-85-1 [7], 52.8%; in the test with HCC1143, 100%; in the test with MCF-10A, 116%; in the test on CAL-148 [8], 95.6%; with MFM-223, 102%. The normalised response in the test on CAL-120 stood at 106%; in the test on BT-474, 111%; with HCC1599 [9] it was 84%; in the test on Hs578T, 97.1%; in the test with DU-4475 [10], 90.2%; with HDQ-P1 [11] it was 92.2%. The normalised response with MDA-MB-468 is 98.7%; in the test with HCC1937, 94.7%; in the test on BT-549, 104%.
Turning to `C[C@@H]1C=C2C(=O)O[C@@H]3CC[C@H](C1)[C@]23O` [Galiellalactone], the “EC50, CellTiter-Blue viability” value in the test with CAL-85-1 [15] is 6.9 µM; in the test on CAL-148 [16], 16.1 µM; in the test on MDA-MB-453 [17], 7.21 µM; in the test with CAL-51 [18] it was 48.9 µM; in the test on HDQ-P1 [19], 39.4 µM. Also, the drug sensitivity score in the test on CAL-85-1 [13] came out at 1.79; with HCC1599 [14], 0.
Regarding `CN1CCN(c2ccc3nc(-c4c(N)c5c(F)cccc5[nH]c4=O)[nH]c3c2)CC1` [Dovitinib] (1000 nM), the normalised viability in the test on CAL-85-1 [1] amounted to 78.3%; in the test with CAL-148 [2], 90.7%; in the test on MDA-MB-453 [3], 91.4%; with CAL-51 [4] it was 116%; with DU-4475 [5], 94.7%; in the test with HDQ-P1 [6] it was 69.7%. In addition, the normalised response with MDA-MB-231 worked out at 101%; with CAL-85-1 [7], 117%; in the test on HCC1143 it was 99.1%; in the test with MCF-10A, 97.2%; in the test with CAL-148 [8], 94.9%; in the test with MFM-223, 95.4%. Also, the normalised response in the test on CAL-120 came out at 92.1%; in the test on BT-474 it was 95.1%; in the test with HCC1599 [9], 106%; in the test on Hs578T, 101%; with DU-4475 [10], 101%; in the test with HDQ-P1 [11], 102%. Besides, the normalised response in the test with MDA-MB-468 was determined as 93.7%; in the test with HCC1937 it was 94.7%; with BT-549, 95.5%.
Consider `Cn1c(=O)c(F)c(Nc2ccc(I)cc2F)c2c(=O)n(C[C@@H](O)CO)cnc21` [TAK-733] (100 nM), for which the normalised viability with CAL-85-1 [1] is 60.2%; in the test with CAL-148 [2], 95%; in the test with MDA-MB-453 [3] it was 89.1%; in the test on CAL-51 [4], 77.7%; with DU-4475 [5] it was 0.99%; with HDQ-P1 [6], 92%. In addition, the normalised response stood at 78% with MDA-MB-231; 69.8% in the test on CAL-85-1 [7]; 93.5% with HCC1143; 38.8% with MCF-10A; 90.4% with CAL-148 [8]; 98.8% in the test on MFM-223. Further, the normalised response stood at 76.7% in the test on CAL-120; 67.2% in the test with BT-474; 93% in the test on HCC1599 [9]; 96.5% with Hs578T; 1.33% with DU-4475 [10]; 66.3% with HDQ-P1 [11]. For the same compound, the normalised response in the test with MDA-MB-468 came out at 79.6%; with HCC1937, 82.7%; with BT-549, 91.6%.
